Experimental data as given in US7951772B2, “Tumor-activated prodrug compounds and treatment” (La Region Wallonne, priority 1994, dated 2011).
In brackets after ≈: the same amount, converted by molar mass. Where two headings read alike, the source gives them in different places.

Tests used:
[1] = tested on: conditioned medium from MCF7/6 mammary carcinoma cells; assay: Degradation in conditioned medium from MCF7/6 mammary carcinoma cells (HPLC)
[2] = tested on: conditioned medium from HepG2 hepatocarcinoma cells; assay: Degradation in conditioned medium from HepG2 hepatocarcinoma cells; conditions: β-Ala-Leu-Ala-Leu-DNR incubated at 37 C for 2 hours in HepG2 conditioned medium
[3] = tested on: MCF7/6 human mammary carcinoma cells; assay: Accumulation in MCF7/6 tumor cells (HPLC of cell extracts)
Description: (§7) After various times, the accumulation of the prodrugs and of their fluorescent metabolites were determined by HPLC after extraction of the products at basic pH according to a method developed in the laboratory. Accumulations, expressed in μg/mg of cellular proteins, were compared with those of DNR and of DOX as well as with those of L-Leu-DNR and L-Leu-DOX. The metabolites were identified by determining the retention times of reference products synthesized in the laboratory.
(§8) After various times, the accumulation of the prodrugs and of their fluorescent metabolites was determined by HPLC after extraction of the products at basic pH according to a method developed in the laboratory. Accumulations, expressed in μg/mg of cellular proteins, were compared with those of DOX and of L-Leu-DOX. The metabolites were identified by determining the retention times of reference products synthesized in the laboratory.

MRC5 fibroblast cells [4] = assay: Cytotoxicity with respect to MRC5 normal cells (72 h, Bradford protein)
Description: (§9) After 72 hours, the cells are incubated for 48 hours in the absence of anthracycline, and the cytotoxicity is determined by measuring the cellular proteins by Bradford's technique. […] The experimental points are adjusted to a sigmoid curve which enables the point of inflection, corresponding to the dose at which half of the cells survive (IC50), to be calculated.
(§10) After 72 hours, the cells are incubated for 48 hours in the absence of the anthracycline, and the cytotoxicity is determined by measuring the cellular proteins by Bradford's technique. […] The experimental points are adjusted to a sigmoid curve which enables the point of inflection, corresponding to the dose at which half of the cells survive (IC50), to be calculated.

[5] = tested on: MCF7/6 human mammary carcinoma cells; assay: Cytotoxicity with respect to MCF7/6 tumor cells (72 h, Bradford protein)
Description: as §9, §10

MRC5 fibroblast cells [6] = assay: Accumulation in MRC5 normal fibroblast cells (HPLC of cell extracts); conditions: MRC5 cells; for Accumulation after 6 h, DOX / Accumulation after 6 h, Leu-DOX: 10 μg eq. DOX/ml
Description: At various times, the accumulation of the prodrugs and of their fluorescent metabolites was determined by HPLC after extraction of the products at basic pH according to a method developed in the laboratory. Accumulations, expressed in μg/mg of cellular proteins, were compared with those of DNR and of L-Leu-DNR. The metabolites were identified by determining the retention times of reference products synthesized in the laboratory.
as §8

MRC5 fibroblast cells [7] = tested on: MRC5 fibroblast cells
Description: as §9, §10

[8] = tested on: conditioned medium from HT29 colon carcinoma cells
[9] = tested on: MCF7/6 human mammary carcinoma cells
Description: as §7, §8

[10] = tested on: conditioned medium from HepG2 hepatocarcinoma cells
[11] = tested on: MCF7/6 human mammary carcinoma cells; remark: listed apart in the source
Description: as §9, §10

[12] = tested on: conditioned medium from MCF7/6 mammary carcinoma cells
female NMRI mice [13] = assay: In vivo acute toxicity, intravenous route; design: species or system mouse
Description: (§1) In the in vivo study of the acute toxicity of a medicinal product, determination of the median lethal dose (lethal dose for 50% of the animals or LD50) occupies an important place. […] The LD50 is a simple test in which increasing amounts of the test product are administered intravenously (i.v.) in a single injection and intraperitoneally (i.p.) in 5 injections, one injection daily for 5 consecutive days. The mortality of the animals is monitored as a function of time. At the end of the observation period, usually 30 days, the value of the LD50 is obtained by linear regression of the percentage mortality (on a probit scale) as a function of the logarithm of the dose administered (O. K. Chan and A. W. Hayes, Principles and methods for acute toxicity and eye irritancy, in Principles and methods of toxicology, Second edition. Ed. by A. W. Hayes, Raven Press, New York, USA (1989), pp. 169-220; D. Deprez-De Campeneere and A. Trouet. DNA-Anthracycline Complexes. I. Toxicity in mice and chemotherapeutic activity against L1210 Leukaemia off Daunorubicin-DNA and Adriamycin-DNA, Eur. J. Cancer, 16 (1980), pp. 981-986; H. E. Skipper, L. H. Schmidt, A. Goldin and J. M. Venditti. A manual on quantitative drug evaluation in experimental tumor systems, Cancer Chemother. Rep. 17 (1.962), pp. 1-178).
(§2) The acute toxicity of these two drugs was studied via the i.v. and i.p. routes on a single strain of mouse. Female NMRI mice (nonconsanguineous SPF-Han, approximately 5 weeks old and of mean weight 14.6 grams, supplied by IFFA-CREDO Belgium) remained in quarantine for one week.
(§3) Injections were performed systematically in the morning (single injection into the caudal vein for the i.v. route and injections on 5 consecutive days into the peritoneum for the i.p. route), using 1.0 ml syringes and sterile 30 G (i.v.) and 27 G (i.p) needles. All handling of animals was performed with gloves, and maintenance of the animals was performed systematically every week.
(§4) DNR was injected i.v. at doses of 10, 15, 20, 25, 30 and 35 mg/kg and i.p. at doses of 2.0; 2.5; 3.0 and 3.5 mg/kg.
(§5) The concentrations of the solutions were verified by spectrophotometry.
(§6) From the day of injection (DO) onwards, the mice were monitored clinically, with a daily record of dead mice. The weight of the mice was measured almost every day. The observation period was extended beyond one month so that the signs of late toxicity could be spotted more readily. At the end of the study, the surviving mice were sacrificed, according to the standards pertaining to animal experiments (D. B. McGregor. Ethics in experiments on animals, in Experiments in toxicology, First edition. Ed. by D. Anderson and D. M. Conning. The Royal Society of Chemistry and The Universities Press. Belfast, Ireland (1988), pp. 512-522).

female NMRI mice [14] = assay: In vivo acute toxicity, intraperitoneal route, 5 consecutive days; design: species or system mouse; conditions: i.p. on 5 consecutive days
Description: as §1, §2, §3, §4, §5, §6

[15] = β-Ala-Leu-Ala-Leu-DOX incubated at 37 C in MCF7/6 conditioned medium concentrated 20 times, share of each species

COc1cccc2c1C(=O)c1c(O)c3c(c(O)c1C2=O)C[C@@](O)(C(C)=O)C[C@@H]3O[C@H]1C[C@H](NC(=O)[C@H](CC(C)C)NC(=O)[C@H](C)N)[C@H](O)[C@H](C)O1 [L-Ala-L-Leu-DNR]
Starting material or Metabolite, Time 0 ([1]; β-Ala-Leu-Ala-Leu-DNR incubated at 37 C in MCF7/6 conditioned medium concentrated 20 of 40 times, share of each species by HPLC): 0%
Starting material or Metabolite, After 1 hour ([1]; β-Ala-Leu-Ala-Leu-DNR incubated at 37 C in MCF7/6 conditioned medium, share of each species by HPLC, 1 hour): <1%
Starting material or Metabolite, After 2 hours ([1]; β-Ala-Leu-Ala-Leu-DNR incubated at 37 C in MCF7/6 conditioned medium, share of each species by HPLC): <1%
main metabolites found, % of the total fluorescence [2]: 8%

COc1cccc2c1C(=O)c1c(O)c3c(c(O)c1C2=O)C[C@@](O)(C(=O)CO)C[C@@H]3O[C@H]1C[C@H](NC(=O)[C@@H](N)CC(C)C)[C@H](O)[C@H](C)O1 [L-Leu-DOX, N-L-leucyldoxorubicin]
Accumulation after 6 h, DOX ([3]; MCF7/6 cells, 10 μg eq. DOX/ml): 0.25 μg/mg cellular prot.
Accumulation after 6 h, Leu-DOX ([3]; MCF7/6 cells, 10 μg eq. DOX/ml): 1.10 μg/mg cellular prot.
accumulation, times less than DOX ([3]; MCF7/6 cells, after 6 hours): 6 times
IC50 (72 h) (MRC5 fibroblast cells [4]; MRC5 cells): 0.30 µg/mL (≈ 0.457 µM)
times less cytotoxic than DOX (MRC5 fibroblast cells [4]; MRC5 cells, 72 hours): 17 times
IC50 (72 h) ([5]; MCF7/6 cells): 0.020 µg/mL (≈ 0.0305 µM)
times less cytotoxic than DOX ([5]; MCF7/6 cells, 72 hours): 8 times
Accumulation after 6 h, DOX (MRC5 fibroblast cells [6]): 0.3 μg/mg cellular prot.
Accumulation after 6 h, Leu-DOX (MRC5 fibroblast cells [6]): 1.4 μg/mg cellular prot.
Accumulation after 6 h, DOX (MRC5 fibroblast cells [6]; listed as Leu-DOX): 0.30 μg/mg cellular prot.
Accumulation after 6 h, Leu-DOX (MRC5 fibroblast cells [6]; listed as Leu-DOX): 1.40 μg/mg cellular prot.
Starting material or Metabolite, After 2 hours [1, 15]: 68%
Starting material or Metabolite, Time 0 [1, 15]: 0%

COc1cccc2c1C(=O)c1c(O)c3c(c(O)c1C2=O)C[C@@](O)(C(C)=O)C[C@@H]3O[C@H]1C[C@H](NC(=O)[C@@H](N)CC(C)C)C(O)[C@H](C)O1 (stereo partly drawn) [L-Leu-DNR, N-L-leucyldaunorubicin]
times less cytotoxic than DNR (MRC5 fibroblast cells [7]): 172 times
IC50 (MRC5 fibroblast cells [4]; MRC5 cells, 72 hours with compound then 48 hours without): 1.78 ± 0.23 µg/mL (≈ 2.78 µM)
main metabolites found, % of the total fluorescence [8]: 82%
IC50 ([5]; MCF7/6 cells, 72 hours with compound then 48 hours without): 1.30 ± 0.56 µg/mL (≈ 2.03 µM)
DNR found intracellularly, % of the total intracellular fluorescence [9]: 14%
main metabolites found, % of the total fluorescence [10]: 27%
times less cytotoxic than DNR [11]: 14 times
Hydrolysis, MCF-7/6 Conditioned Medium [12]: −
Starting material or Metabolite, After 1 hour [12]: 83%
Starting material or Metabolite, After 2 hours [12]: 90%
Starting material or Metabolite, Time 0 [12]: 0%

COc1cccc2c1C(=O)c1c(O)c3c(c(O)c1C2=O)C[C@@](O)(C(C)=O)C[C@@H]3O[C@H]1C[C@H](N)[C@H](O)[C@H](C)O1 [DNR, daunorubicin]
maximum accumulation ([3]; MCF7/6 cells, 10 μg/ml, after 6 hours of incubation): ~15 μg/mg of cellular proteins
Intracellular concentration, Starting material ([3]; MCF7/6 cells, 6 hours of incubation, 10 μg eq. DNR/ml): 14.9 μg/mg cellular proteins
ratio of the intracellular DNR levels (MCF7/6 to MRC5) ([3]; cells incubated in the presence of the compound): 0.19
IC50 (MRC5 fibroblast cells [4]; Homo sapiens, MRC5): 0.01 ± 0.006 µg/mL (≈ 0.019 µM)
IC50 ([5]; Homo sapiens, MCF7/6): 0.09 ± 0.004 µg/mL (≈ 0.171 µM)
mice dying (female NMRI mice [13]; single i.v., 25 mg/kg, groups of 7, days 12 to 42): 6
mortality begins on day (female NMRI mice [13]; single i.v., 30 mg/kg): 7 days
mice dead out of 7 at first mortality (female NMRI mice [13]; single i.v., 30 mg/kg, day 7): 1
mortality begins on day (female NMRI mice [13]; single i.v., 35 mg/kg): 6 days
mice dead out of 7 at first mortality (female NMRI mice [13]; single i.v., 35 mg/kg, day 6): 2
mortality (female NMRI mice [13]; single i.v., 10, 15 and 20 mg/kg): no mortality
day of maximal mean weight loss (female NMRI mice [13]; single i.v., 10-35 mg/kg): 7 days
weight recovery of surviving mice (female NMRI mice [13]; single i.v., 30 and 35 mg/kg, 30 days after injection): do not recover their initial weight
accumulation plateau (MRC5 fibroblast cells [6]; 10 μg/ml, after 6 hours): ~76 μg/mg of cellular proteins
Intracellular concentration, Starting material (MRC5 fibroblast cells [6]; 6 hours of incubation, 10 μg eq. DNR/ml): 77.4 μg/mg cellular proteins
day on which no mouse is surviving (female NMRI mice [14]; 2.0 mg/kg): 29 days
mice dead out of 7 at first mortality (female NMRI mice [14]; 2.0 mg/kg, day 11): 1
mice surviving on day 43 (female NMRI mice [14]; 2.5 mg/kg): one
mice dead out of 7 at first mortality (female NMRI mice [14]; 2.5 mg/kg, day 11): 2
day on which no mouse is surviving (female NMRI mice [14]; 3.0 mg/kg): 19 days
mice dead out of 7 at first mortality (female NMRI mice [14]; 3.0 mg/kg, day 9): 2
day on which no mouse is surviving (female NMRI mice [14]; 3.5 mg/kg): 12 days
mice dead out of 7 at first mortality (female NMRI mice [14]; 3.5 mg/kg, day 7): 1
mortality from day (female NMRI mice [14]; dose of 2.0 mg/kg): 11 days
mortality from day (female NMRI mice [14]; dose of 2.5 mg/kg): 11 days
mortality from day (female NMRI mice [14]; dose of 3.0 mg/kg): 9 days
mortality from day (female NMRI mice [14]; dose of 3.5 mg/kg): 7 days
weight loss, % of the initial weight (female NMRI mice [14]; irrespective of the dose (2.0-3.5 mg/kg)): 30%
